What was measured:
Pyricularia oryzae = experiment: microbe, parasite or virus in culture; type: cell-based; conditions: 168 h, read-out: control compared to the untreated check (radial growth)
Rhizoctonia solani = Rhizoctonia solani (rice sheath blight/potato black scurf) in vitro test, radial growth on potato dextrose agar; type: cell-based; conditions: 168 h, 300 ppm in potato dextrose agar, 25° C., 60% relative humidity, seven days, read-out: control compared to the untreated check (radial growth)
Botrytis cinerea = Botrytis cinerea (gray mold) in vitro test, radial growth on potato dextrose agar; type: cell-based; conditions: 168 h, 300 ppm in potato dextrose agar, 22° C., 90% relative humidity, seven days, read-out: control compared to the untreated check (radial growth)
Alternaria solani = Alternaria solani (early blight of tomato/potato) in vitro test, radial growth on potato dextrose agar; type: cell-based; conditions: 168 h, 300 ppm in potato dextrose agar, 25° C., 60% relative humidity, seven days, read-out: control compared to the untreated check (radial growth)
Colletotrichum capsici = Colletotrichum capsici (anthracnose) in vitro test, radial growth on potato dextrose agar; type: cell-based; conditions: Colletotrichum truncatum, 168 h; 300 ppm in potato dextrose agar; 25° C., 60% relative humidity, seven days; read-out: control compared to the untreated check (radial growth)
[1] = system: Septoria lycopersici/Corynespora cassicola (CORYCA); experiment: Septoria lycopersici/Corynespora cassicola (CORYCA) (leaf spot of tomato) in vitro test, radial growth on potato dextrose agar; type: cell-based; conditions: 168 h, 300 ppm in potato dextrose agar, 25° C., 70% relative humidity, seven days, read-out: control compared to the untreated check (radial growth)
Fusarium culmorum = Fusarium culmorum (foot rot of cereals) in vitro test, radial growth on potato dextrose agar; type: cell-based; conditions: 168 h, 300 ppm in potato dextrose agar, 25° C., 60% relative humidity, seven days, read-out: control compared to the untreated check (radial growth)
In short: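 Compound in 0.3% DMSO mixed into potato dextrose agar, plates seeded with a 5 mm mycelial disc from an actively growing virulent culture. After seven days at 25° C and 60% relative humidity, radial growth was measured against untreated control.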

Phakopsora pachyrhizi = Phakopsora pachyrhizi test in soybean, preventive, in vivo on plants; conditions: in Glycine max, read-out: Efficacy (% control), disease severity compared to the untreated check

CCN(C)C=Nc1cc(C)cc(Nc2ccc(Cl)cc2)c1Cl [Compound 59, N′-(2-chloro-3-((4-chlorophenyl)amino)-5-methylphenyl)-N-ethyl-N-methylformimidamide]
≥ 70%: inhibition of growth at 300 ppm (Pyricularia oryzae) | inhibition of growth at 300 ppm (Rhizoctonia solani) | inhibition of growth at 300 ppm (Botrytis cinerea) | inhibition of growth at 300 ppm (Alternaria solani) | inhibition of growth at 300 ppm (Colletotrichum capsici) | inhibition of growth at 300 ppm [1] | inhibition of growth at 300 ppm (Fusarium culmorum) | pest or weed control at 500 ppm (Phakopsora pachyrhizi)

CCN(C)C=Nc1cc(OC)cc(Cc2ccc(C)cc2)c1C [Compound 263, N-ethyl-N′-(5-methoxy-2-methyl-3-(4-methylbenzyl)phenyl)-N-methylformimidamide]
≥ 70%: inhibition of growth at 300 ppm (Pyricularia oryzae) | inhibition of growth at 300 ppm (Rhizoctonia solani) | inhibition of growth at 300 ppm (Botrytis cinerea) | inhibition of growth at 300 ppm (Alternaria solani) | inhibition of growth at 300 ppm (Colletotrichum capsici) | inhibition of growth at 300 ppm [1] | inhibition of growth at 300 ppm (Fusarium culmorum) | pest or weed control at 500 ppm (Phakopsora pachyrhizi)

CCN(C)C=Nc1cc(C)cc(Cc2cccc(Cl)c2F)c1Cl [Compound 56, N′-(2-chloro-3-(3-chloro-2-fluorobenzyl)-5-methylphenyl)-N-ethyl-N-methylformimidamide]
≥ 70%: inhibition of growth at 300 ppm (Pyricularia oryzae) | inhibition of growth at 300 ppm (Rhizoctonia solani) | inhibition of growth at 300 ppm (Botrytis cinerea) | inhibition of growth at 300 ppm (Alternaria solani) | inhibition of growth at 300 ppm (Colletotrichum capsici) | inhibition of growth at 300 ppm [1] | inhibition of growth at 300 ppm (Fusarium culmorum) | pest or weed control at 500 ppm (Phakopsora pachyrhizi)

CCN(C)C=Nc1cc(C)cc(Cc2cccc(C)c2)c1C [Compound 208, N′-(2,5-dimethyl-3-(3-methylbenzyl)phenyl)-N-ethyl-N-methylformimidamide]
≥ 70%: inhibition of growth at 300 ppm (Pyricularia oryzae) | inhibition of growth at 300 ppm (Rhizoctonia solani) | inhibition of growth at 300 ppm (Botrytis cinerea) | inhibition of growth at 300 ppm (Alternaria solani) | inhibition of growth at 300 ppm (Colletotrichum capsici) | inhibition of growth at 300 ppm [1] | inhibition of growth at 300 ppm (Fusarium culmorum) | pest or weed control at 500 ppm (Phakopsora pachyrhizi)

CCN(C)C=Nc1cc(C)cc(Cc2ccc(Br)cc2)c1C [Compound 223, N′-(3-(4-bromobenzyl)-2,5-dimethylphenyl)-N-ethyl-N-methylformimidamide]
≥ 70%: inhibition of growth at 300 ppm (Pyricularia oryzae) | inhibition of growth at 300 ppm (Rhizoctonia solani) | inhibition of growth at 300 ppm (Botrytis cinerea) | inhibition of growth at 300 ppm (Alternaria solani) | inhibition of growth at 300 ppm (Colletotrichum capsici) | inhibition of growth at 300 ppm [1] | inhibition of growth at 300 ppm (Fusarium culmorum) | pest or weed control at 500 ppm (Phakopsora pachyrhizi)

CCN(C)C=Nc1cc(Cl)cc(Cc2ccc(F)c(F)c2)c1C [Compound 129, N′-(5-chloro-3-(3,4-difluorobenzyl)-2-methylphenyl)-N-ethyl-N-methylformimidamide]
≥ 70%: inhibition of growth at 300 ppm (Pyricularia oryzae) | inhibition of growth at 300 ppm (Rhizoctonia solani) | inhibition of growth at 300 ppm (Botrytis cinerea) | inhibition of growth at 300 ppm (Alternaria solani) | inhibition of growth at 300 ppm (Colletotrichum capsici) | inhibition of growth at 300 ppm [1] | inhibition of growth at 300 ppm (Fusarium culmorum) | pest or weed control at 500 ppm (Phakopsora pachyrhizi)

CCN(C)C=Nc1cc(F)cc(Cc2ccc(F)cc2)c1C [Compound 204, N-ethyl-N′-(5-fluoro-3-(4-fluorobenzyl)-2-methylphenyl)-N-methylformimidamide]
≥ 70%: inhibition of growth at 300 ppm (Pyricularia oryzae) | inhibition of growth at 300 ppm (Rhizoctonia solani) | inhibition of growth at 300 ppm (Botrytis cinerea) | inhibition of growth at 300 ppm (Alternaria solani) | inhibition of growth at 300 ppm (Colletotrichum capsici) | inhibition of growth at 300 ppm [1] | inhibition of growth at 300 ppm (Fusarium culmorum) | pest or weed control at 500 ppm (Phakopsora pachyrhizi)

CCN(C)C=Nc1cc(C)cc(Cc2ccc(C)cc2)c1Cl [Compound 18, N′-(2-chloro-5-methyl-3-(4-methylbenzyl)phenyl)-N-ethyl-N-methylformimidamide]
≥ 70%: inhibition of growth at 300 ppm (Pyricularia oryzae) | inhibition of growth at 300 ppm (Rhizoctonia solani) | inhibition of growth at 300 ppm (Botrytis cinerea) | inhibition of growth at 300 ppm (Alternaria solani) | inhibition of growth at 300 ppm (Colletotrichum capsici) | inhibition of growth at 300 ppm [1] | inhibition of growth at 300 ppm (Fusarium culmorum) | pest or weed control at 500 ppm (Phakopsora pachyrhizi)

CCN(C)C=Nc1cc(F)cc(Nc2cc(F)cc(F)c2)c1C [Compound 77, N′-(3-((3,5-difluorophenyl)amino)-5-fluoro-2-methylphenyl)-N-ethyl-N-methylformimidamide]
≥ 70%: inhibition of growth at 300 ppm (Pyricularia oryzae) | inhibition of growth at 300 ppm (Rhizoctonia solani) | inhibition of growth at 300 ppm (Botrytis cinerea) | inhibition of growth at 300 ppm (Alternaria solani) | inhibition of growth at 300 ppm (Colletotrichum capsici) | inhibition of growth at 300 ppm [1] | inhibition of growth at 300 ppm (Fusarium culmorum) | pest or weed control at 500 ppm (Phakopsora pachyrhizi)

CCN(C)C=Nc1cc(F)cc(Cc2ccc(Br)cc2F)c1C [Compound 236, N′-(3-(4-bromo-2-fluorobenzyl)-5-fluoro-2-methylphenyl)-N-ethyl-N-methylformimidamide]
≥ 70%: inhibition of growth at 300 ppm (Pyricularia oryzae) | inhibition of growth at 300 ppm (Rhizoctonia solani) | inhibition of growth at 300 ppm (Botrytis cinerea) | inhibition of growth at 300 ppm (Alternaria solani) | inhibition of growth at 300 ppm (Colletotrichum capsici) | inhibition of growth at 300 ppm [1] | inhibition of growth at 300 ppm (Fusarium culmorum) | pest or weed control at 500 ppm (Phakopsora pachyrhizi)

CCN(C)C=Nc1cc(OC)cc(Cc2ccc(Br)cc2)c1C [Compound 287, N′-(3-(4-bromobenzyl)-5-methoxy-2-methylphenyl)-N-ethyl-N-methylformimidamide]
≥ 70%: inhibition of growth at 300 ppm (Pyricularia oryzae) | inhibition of growth at 300 ppm (Rhizoctonia solani) | inhibition of growth at 300 ppm (Botrytis cinerea) | inhibition of growth at 300 ppm (Alternaria solani) | inhibition of growth at 300 ppm (Colletotrichum capsici) | inhibition of growth at 300 ppm [1] | inhibition of growth at 300 ppm (Fusarium culmorum) | pest or weed control at 500 ppm (Phakopsora pachyrhizi)

CCN(C)C=Nc1cc(C)cc(Cc2ccccc2)c1C [Compound 207, N′-(3-benzyl-2,5-dimethylphenyl)-N-ethyl-N-methylformimidamide]
≥ 70%: inhibition of growth at 300 ppm (Pyricularia oryzae) | inhibition of growth at 300 ppm (Rhizoctonia solani) | inhibition of growth at 300 ppm (Botrytis cinerea) | inhibition of growth at 300 ppm (Alternaria solani) | inhibition of growth at 300 ppm (Colletotrichum capsici) | inhibition of growth at 300 ppm [1] | inhibition of growth at 300 ppm (Fusarium culmorum) | pest or weed control at 500 ppm (Phakopsora pachyrhizi)

CCN(C)C=Nc1cc(Cl)cc(Cc2ccc(F)cc2)c1C [Compound 124, N′-(5-chloro-3-(4-fluorobenzyl)-2-methylphenyl)-N-ethyl-N-methylformimidamide]
≥ 70%: inhibition of growth at 300 ppm (Pyricularia oryzae) | inhibition of growth at 300 ppm (Rhizoctonia solani) | inhibition of growth at 300 ppm (Botrytis cinerea) | inhibition of growth at 300 ppm (Alternaria solani) | inhibition of growth at 300 ppm (Colletotrichum capsici) | inhibition of growth at 300 ppm [1] | inhibition of growth at 300 ppm (Fusarium culmorum) | pest or weed control at 500 ppm (Phakopsora pachyrhizi)

CCN(C)C=Nc1cc(C)cc(Cc2ccc(Cl)cc2)c1C [Compound 224, N′-(3-(4-chlorobenzyl)-2,5-dimethylphenyl)-N-ethyl-N-methylformimidamide]
≥ 70%: inhibition of growth at 300 ppm (Pyricularia oryzae) | inhibition of growth at 300 ppm (Rhizoctonia solani) | inhibition of growth at 300 ppm (Botrytis cinerea) | inhibition of growth at 300 ppm (Alternaria solani) | inhibition of growth at 300 ppm (Colletotrichum capsici) | inhibition of growth at 300 ppm [1] | inhibition of growth at 300 ppm (Fusarium culmorum) | pest or weed control at 500 ppm (Phakopsora pachyrhizi)

CCN(C)C=Nc1cc(C)cc(Nc2cccc(F)c2)c1Cl [Compound 35, N′-(2-chloro-3-((3-fluorophenyl)amino)-5-methylphenyl)-N-ethyl-N-methylformimidamide]
≥ 70%: inhibition of growth at 300 ppm (Pyricularia oryzae) | inhibition of growth at 300 ppm (Rhizoctonia solani) | inhibition of growth at 300 ppm (Botrytis cinerea) | inhibition of growth at 300 ppm (Alternaria solani) | inhibition of growth at 300 ppm (Colletotrichum capsici) | inhibition of growth at 300 ppm [1] | inhibition of growth at 300 ppm (Fusarium culmorum)

Reference: patent US12545639B2, “3-substituted phenylamidine compounds, preparation and use thereof” (PI INDUSTRIES LTD., priority 2019, dated 2026)
